Test results reported in ChEMBL document CHEMBL1201862, “PubChem BioAssay data set” (2004).
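Compound exposure: 48 hours, 5 concentrations, 96-well plates. GI50 is the concentration that inhibits growth by half.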 The source made the active and inactive calls. Cut-off read from the data, not from the text of the source: active = GI50 up to about 1.1 µM and inactive = higher.

What was measured:
Assay in all cases: NCI tumour cell line growth inhibition, 48 h
[1] = tested on: ACHN
[2] = tested on: EKVX
[3] = tested on: HOP-62
[4] = tested on: K562
[5] = tested on: MOLT-4
[6] = tested on: OVCAR-4
[7] = tested on: SF-268
[8] = tested on: SF-539
[9] = tested on: SK-OV-3
[10] = tested on: SN12C
[11] = tested on: SNB-19
[12] = tested on: U-251
[13] = tested on: UACC-257
[14] = tested on: UO-31
[15] = tested on: RXF 393

Measured: GI50

N#CC(N)(C(=O)CCC(=O)Nc1cccc(Cl)c1)c1ccc(Cl)cc1 (stereo unspecified)
inactive: [1] > 100 µM | [2] > 100 µM | [3] > 100 µM | [4] > 100 µM | [5] > 100 µM | [6] > 100 µM | [7] > 100 µM | [8] > 100 µM | [9] > 100 µM | [10] > 100 µM | [11] > 100 µM | [12] > 100 µM | [13] > 100 µM | [14] > 100 µM

CCOc1ccc2c(c1)[n+]([O-])c(-c1ccccc1)c(N)[n+]2[O-]
inactive: [1] 55.1 µM | [2] 89.1 µM | [3] 71.9 µM | [4] 45 µM | [5] 46.8 µM | [6] > 100 µM | [7] 36.6 µM | [8] 51.3 µM | [9] > 100 µM | [10] > 100 µM | [11] > 100 µM | [12] 47.6 µM | [13] 41.5 µM | [14] 96.4 µM

COc1ccc(S(=O)(=O)NC(C)C(=O)O)cc1 (stereo unspecified)
inactive: [1] > 100 µM | [2] > 100 µM | [4] > 100 µM | [5] > 100 µM | [6] > 100 µM | [15] > 100 µM | [7] > 100 µM | [8] > 100 µM | [9] > 100 µM | [10] > 100 µM | [11] > 100 µM | [12] > 100 µM | [13] > 100 µM | [14] > 100 µM

CCC12CCCC(=O)N1C(CO)C(c1ccccc1)O2 (stereo unspecified)
inactive: [1] > 100 µM | [2] > 100 µM | [3] > 100 µM | [4] > 100 µM | [6] > 100 µM | [15] > 100 µM | [7] > 100 µM | [8] > 100 µM | [10] > 100 µM | [11] > 100 µM | [12] > 100 µM | [13] > 100 µM

CCCCCCCCCCCCN(O)C(=O)c1ccccc1
inactive: [1] 28.2 µM | [2] 25.9 µM | [4] 18.9 µM | [5] 6.44 µM | [15] 35.2 µM | [7] 15.1 µM | [8] 20.6 µM | [9] 43.1 µM | [10] 17.1 µM | [11] 42.6 µM | [12] 11.8 µM | [13] 18.8 µM | [14] 24.3 µM

O=C(N/N=C/c1cc(-c2ccccc2Cl)c(-c2ccccc2Cl)o1)c1ccncc1
inactive: [1] > 100 µM | [2] > 100 µM | [3] > 100 µM | [4] > 10 µM | [6] > 100 µM | [15] > 100 µM | [7] > 100 µM | [8] > 100 µM | [9] > 100 µM | [10] > 100 µM | [11] > 100 µM | [13] > 100 µM

Clc1ccc(C2=NN(c3ccccc3)C3c4cc(Br)ccc4OCC23)cc1 (stereo unspecified)
inactive: [1] > 100 µM | [2] > 100 µM | [3] > 100 µM | [4] 33.8 µM | [5] 40.9 µM | [15] 61.1 µM | [7] 53.6 µM | [8] > 100 µM | [9] > 100 µM | [11] > 100 µM | [12] 67.3 µM | [13] 99.1 µM | [14] > 100 µM

CCCN(CCC)CCc1cc(C(C)=O)n(S(=O)(=O)c2ccc(C)cc2)c1
inactive: [1] > 100 µM | [2] > 100 µM | [3] > 100 µM | [4] 80.9 µM | [5] > 100 µM | [6] > 100 µM | [7] > 100 µM | [8] > 100 µM | [9] > 100 µM | [10] > 100 µM | [11] > 100 µM | [12] > 100 µM | [13] 54.6 µM | [14] 83.2 µM

CC1=NN(c2ccccc2)C(=O)C1=C1SCCCS1
inactive: [1] > 100 µM | [2] 30.1 µM | [3] 42.1 µM | [4] 21.1 µM | [5] 16 µM | [15] 28.5 µM | [7] 44 µM | [9] 46.3 µM | [10] 28.2 µM | [11] 22.5 µM | [12] 18.1 µM | [13] 28.2 µM | [14] 34.2 µM

Nc1ccc(C(=O)NN2C(=O)C(Cl)C2c2cccc([N+](=O)[O-])c2)cc1 (stereo unspecified)
inactive: [1] 20.1 µM | [2] 28.2 µM | [3] 24.6 µM | [4] 20.8 µM | [5] 15.1 µM | [6] 16.4 µM | [7] 17 µM | [8] 20.7 µM | [9] 18.7 µM | [10] 19.7 µM | [11] 17.3 µM | [12] 13.9 µM | [13] 23.1 µM | [14] 17.4 µM

O=S1(=O)NN=C(NCc2ccc(Cl)c(Cl)c2)c2ccccc21
inactive: [1] > 100 µM | [2] > 100 µM | [4] 12 µM | [5] 15.1 µM | [6] > 100 µM | [15] 19.8 µM | [7] > 100 µM | [8] > 100 µM | [10] > 100 µM | [11] > 100 µM | [12] 30.2 µM | [13] > 100 µM | [14] > 100 µM
